# US6605704B1, “Plant-origin regulator protein and nucleic acid encoding the same” (Japan Tobacco Inc., priority 1999, dated 2003)
# Where two headings read alike, the source gives them in different places.
# How the values were obtained:
# [1] = tested on: mRNA of ZmCip1; assay: Northern analysis after t-zeatin, benzyladenine or abscisic acid treatment of cut leaves; format: cell-based, maize (Zea mays L.cv. Golden Cross Bantam T51); conditions: 100 or 180 minutes, nitrogen-deficient leaves
# Procedure: (§1) The cut leaves of the maize cultivated under the low-nitrogen condition as mentioned above was treated with 5 μM t-zeatin or with water for 0 minute, 30 minutes, 45 minutes, 60 minutes or 90 minutes, and the ⅓ portions from the distal ends of the leaves was collected. After freezing the collected leaves with liquid nitrogen, RNAs were extracted by the guanidine thiocyanate/cesium chloride method. Ten micrograms of the obtained RNAs were fractionated by formaldehyde gel (1%) electrophoresis and the resultant was transferred to a nylon membrane. Hybridization was performed using ZmCip1 cDNA or maize ubiquitin gene as a probe.
# (10) The cut leaves of the maize cultivated under the low-nitrogen condition as mentioned above were treated with 5 μM t-zeatin, 5 μM benzyladenine, 10 μM±abscisic acid or with water for 100 minutes or 180 minutes, and Northern analysis was performed as in (4).
# [2] = tested on: mRNA of ZmCip1; conditions: 10^−11 to 10^−7 M tested, 100 or 180 minutes, cut leaves
# Procedure: (§2) The cut leaves of the maize cultivated under the low-nitrogen condition as mentioned above were treated with 16 mM NaNO3 solution or with 0.08 mM NaNO3 solution for 0 hour, 2 hours, 5 hours, […] or 24 hours and Northern analysis was carried out in the same manner as in (4) except that the weight of the RNAs applied to each gel was 20 μg, respectively, and that a non-coding region of ZmCip1 was used as a probe.
# [3] = tested on: mRNA of ZmCip1; conditions: 5 μM, nitrogen-deficient maize green leaves
# Procedure: as §1
# [4] = tested on: mRNA of ZmCip1; conditions: 5 μM, 100 minutes, nitrogen-deficient leaves
# Procedure: as §2
# The cut leaves of the maize cultivated under the low-nitrogen condition as mentioned above were treated with 5 μM t-zeatin, 5 μM zeatin-O-glucoside or with water for 100 minutes, and Northern analysis was performed in the same manner as in (5), except that the amount of the RNAs applied to each gel was 15 μg.
# [5] = tested on: ZmCip1 gene
# Procedure: (3) Assay of Induction of Expression of CIP 1 by Cytokinin Treatment (Run-Off Transcription Assay) Run-off transcription assay for expression of ZmCip1 gene was carried out. Nuclei were isolated from maize mesophyll cells and its RNA synthesis activity was measured according to a reported method (I. Suzuki, C. Cretin, T. Omata, T. Sugiyama, Plant Physiol.105:1223,1994). The RNAs synthesized by the isolated nuclei were fractionated by formaldehyde gel electrophoresis and the fractionated RNAs were transferred to a nylon membrane, followed by hybridization with ^32P-labeled ZmCip 1 cDNA or C4Ppc1 cDNA. The intensity of the detected signal was measured by Bio Imaging Analyzer (BAS2000, Fuji Film).
# [6] = tested on: mRNA of ZmCip 1; assay: Northern analysis of induction of expression of CIP1 by cytokinin treatment and cycloheximide treatment; format: cell-based, maize (Zea mays L.cv. Golden Cross Bantam T51); conditions: as printed under experiment (8), nitrogen-deficient maize green leaves
# Procedure: as §2
# The cut leaves of the maize cultivated under the low-nitrogen condition as mentioned above were treated (i) with water for 60 minutes and then with water for 90 minutes, (ii) with water for 60 minutes and then with 5 μM t-zeatin for 90 minutes, (iii) with 20 μg/ml of cycloheximide for 60 minutes and then with 20 μg/ml cycloheximide and 5 μM t-zeatin for 90 minutes, or (iv) with 20 μg/ml of cycloheximide for 60 minutes and then with 20 μg/ml of cycloheximide for 90 minutes, and Northern analysis was performed in the same manner as in (5) except that the amount of the RNAs applied to each gel was 30 μg.
# [7] = tested on: mRNA of ZmCip1; assay: Northern analysis of induction of expression of CIP1 by ammonium ion, cut leaves; format: cell-based, maize (Zea mays L.cv. Golden Cross Bantam T51); conditions: 6 mM NH4+, nitrogen-deficient maize green leaves
# Procedure: as §2
# The cut leaves of the maize cultivated under the low-nitrogen condition as mentioned above were treated with 6 mM NH4^+ solution or with 0.08 mM NaNO3 solution for 0 to 7 hours and Northern analysis was carried out in the same manner as in (5) except that the weight of the RNAs applied to each gel was 15 μg.
# [8] = tested on: mRNA of ZmCip1
# Procedure: as §1, §2
# [9] = tested on: mRNA of ZmCip1; conditions: 16 mM NaNO3, 5 hours after treatment
# Procedure: as §2
# The maize cultivated under the low-nitrogen condition as mentioned above was treated with 16 mM NaNO3 solution or with 0.08 mM NaNO3 solution for 5 hours, and its leaf blades, leaf sheaths and roots were separately collected, followed by Northern analysis in the same manner as in (5) except that the amount of the RNAs from leaf sheaths or roots applied to each gel was 30 μg.
compound,measurement,setting,value
C/C(=C\CNc1ncnc2[nH]cnc12)CO [t-zeatin],induction of expression of ZmCip1 mRNA,[1]; 5 μM,induced
same,low level of t-zeatin at which expression of ZmCip1 mRNA was induced,[2],10^−9 M
same,time after treatment at which accumulation of ZmCip1 mRNA was confirmed,[3],30 min
same,time after treatment at which the gene was strongly expressed,[3],45 to 90 min
same,induction of expression of ZmCip1 mRNA,[4],induced
same,treatment time that causes transcription of ZmCip1 mRNA,"[5]; cut leaves of maize cultivated under low-nitrogen condition, nuclei from mesophyll cells",20 min
same,timing of ZmCip1 transcription compared with transcription of C4Ppc1 mRNA,[5]; same leaves treated with t-zeatin,much earlier stage
N [ammonium ion],time after treatment at which ZmCip1 mRNA was confirmed,[6],5 h
same,time after treatment at which the gene was strongly expressed,[6],6 to 7 h
same,time after treatment at which ZmCip1 mRNA was confirmed,[7],5 h
same,time after treatment at which the gene was strongly expressed,[7],6 to 7 h
zeatin-O-glucoside,induction of expression of ZmCip1 mRNA,[4],induced
c1ccc(CNc2ncnc3nc[nH]c23)cc1 [benzyladenine],induction of expression of ZmCip1 mRNA,[1]; 5 μM,induced
"O=[N+]([O-])[O-].[Na+] [nitrate ion, NaNO3]",expression of the gene 24 hours after the treatment,"[8]; 16 mM NaNO3, 24 hours",scarcely observed
same,time after treatment at which accumulation of ZmCip1 mRNA was confirmed,"[8]; 16 mM NaNO3, nitrogen-deficient green leaves",5 to 6 h
same,accumulation of ZmCip1 mRNA in green leaves,[9]; nitrogen-deficient maize green leaves,confirmed
same,expression of ZmCip1 mRNA in roots,[9]; roots,scarcely observed
CC1=CC(=O)CC(C)(C)[C@@]1(O)/C=C/C(C)=C\C(=O)O [abscisic acid],induction of expression of ZmCip1 mRNA,[1]; 10 μM,slightly induced
